# Assay results reported in patent publication US20230173070A1, “METHODS AND SYSTEMS FOR ENHANCING DELIVERY OF THERAPEUTIC AGENTS TO BIOFILMS USING LOW BOILING POINT PHASE CHANGE CONTRAST AGENTS” (The University of North Carolina at Chapel Hill, priority 2020, published 2023).
# Structures can show the parent of a compound that is named as a salt.
# Key:
# [1] = tested on: MRSA strain LAC biofilms; test: MRSA biofilm assay with antibiotics plus PCCA and ultrasound (US-PCCA), survivors enumerated by plating; type: cell-based, S. aureus; conditions: for enhancement of tobramycin efficacy in the presence of PCCAs / increase in killing of biofilm-associated cells by US-PCCA: 30 s ultrasound; for enhancement of tobramycin efficacy in the presence of PCCAs: 20% duty cycle, FIG. 2B; for increase in killing of biofilm-associated cells by US-PCCA: vs antibiotic alone, 10% duty cycle, FIG. 2C
# Procedure: Next, we tested the ability of 30 second (s) US-PCCA treatment to potentiate tobramycin efficacy. […] We hypothesized that US-PCCA might improve tobramycin penetration into biofilms and increase its efficacy. Mature biofilms were washed and transferred to a custom-built temperature-controlled 37° C. water bath alignment setup (FIG. 1B). Tobramycin and PCCAs were added and ultrasound applied at a range of rarefactional pressures (300-1200 kPa).
# (§1) MRSA strain LAC biofilms were cultured overnight in brain-heart infusion (BHI) media in 12-well (FIGS. 2A and 2B) or 24-well (FIG. 2C) tissue culture treated plates. Biofilms were washed and treated with antibiotics. Where indicated, plates were transferred to a custom-built temperature-controlled 37° C. water bath alignment setup. PCCA were added and 30 s ultrasound exposure was applied at indicated pressures and 20% duty cycle (FIG. 2B) or 10% duty cycle (FIG. 2C). After 24 hours, biofilms were washed, sonicated for disruption and surviving cells were enumerated by serial dilution plating. Survivors were presented as log10 CFU/ml. The averages of n=3 biologically independent samples are shown. The error bars represent the standard deviation. Statistical significance was determined using a one-way analysis of variance (ANOVA) with Dunnett's (FIG. 2A) or Sidak's multiple comparison test (FIGS. 2B and 2C). **, ***, **** denotes P<0.005, P<0.0005, P<0.0001, respectively. LEV, levofloxacin; GENT, gentamicin; TOB, tobramycin; MUP, mupirocin; VAN, vancomycin; LIN, linezolid, RIF, 10 μg/ml rifampicin; ns, not significant; US-PCCA, ultrasound-stimulated phase change contrast agents.
# MRSA strain LAC biofilms were cultured overnight in brain-heart infusion (BHI) media in 24-well tissue culture treated plates. Biofilms were washed and treated with antibiotics and transferred to a custom-built temperature-controlled 37° C. water bath alignment setup. PCCAs were added and 30 s ultrasound exposure was applied at 300 kPa or 600 kPa (FIG. 3B and 3C) and 10% duty cycle. After 24 h, biofilms were washed, sonicated for disruption and surviving cells were enumerated by serial dilution plating (FIG. 3A) or stained with crystal violet (FIG. 3B). The averages of n=6 biologically independent samples are shown. The error bars represent the standard deviation. Statistical significance was determined using a one-way analysis of variance (ANOVA) with Dunnett's multiple comparison test (a) or multiple unpaired t-test (2-tailed) (FIG. 3C). *, **, **** denotes P<0.05, P<0.005, P<0.0001, respectively. TOB, 58 μg/ml tobramycin; RL, 30 μg/ml rhamnolipids; DAP, 100 μg/ml daptomycin; LIN, 15 μg/ml linezolid; RIF, 10 μg/ml rifampicin; ADEP, 5 μg/ml acyldepsipeptide; ns, not significant; US-PCCA, ultrasound-stimulated phase change contrast agents.
# Biofilm assays were performed using the USA300 MRSA strain LAC. It is a highly characterized community-acquired MRSA (CA-MRSA) strain isolated in 2002 from an abscess of an inmate in Los Angeles County jail in California^67. LAC was cultured overnight (18 h) in brain heart infusion (BHI) media (Oxoid) in biological triplicates.
# [2] = tested on: MRSA biofilms (USA300 LAC); test: MRSA biofilm assay, antibiotics alone, survivors enumerated by plating; type: cell-based, S. aureus; conditions: antibiotic alone at clinically achievable concentration (Cmax), 24 hours of drug treatment of mature biofilm, FIG. 2A
# Procedure: Antibiotics were chosen based on clinical relevance or previously reported anti-biofilm efficacy in vitro. Mature MRSA biofilms (USA300 LAC) were cultured for 24 hours in tissue culture treated plates before the addition of antibiotics. Following 24 hours of drug treatment, biofilms were washed, and survivors were enumerated by plating.
# as §1
# Biofilm assays were performed using the USA300 MRSA strain LAC. It is a highly characterized community-acquired MRSA (CA-MRSA) strain isolated in 2002 from an abscess of an inmate in Los Angeles County jail in California^67. LAC was cultured overnight (18 h) in brain heart infusion (BHI) media (Oxoid) in biological triplicates. Each culture was diluted 1:150 in fresh media and 2 or 3 ml was added to the wells of 24-well or 12-well tissue culture treated plates (Costar), respectively. Biofilms were covered with Breathe-Easier sealing strips (Sigma) and incubated at 37° C. for 24 h. Biofilms were carefully washed twice with PBS and fresh BHI media containing antibiotics was added. Biofilms were covered and incubated at 37° C. for 24 h. Biofilms were carefully washed twice with PBS before dispersal in a sonicating water bath (5 min) and vigorous pipetting. Surviving cells were enumerated by serial dilution and plating. […] For daptomycin activity, the media was supplemented with 50 mg/L of Ca^2+ ions. Where indicated tobramycin was supplemented with 30 μg/ml rhamnolipids^22 (50/50 mix of mono- and di-rhamnolipids, Sigma). Where indicated biofilms were treated with PCCA and ultrasound. For crystal violet staining, biofilms were carefully washed twice with PBS, and dried in a 65° C. oven for 1 h. Biofilms were stained with 1 ml 0.4% crystal violet for 5 min, and washed 3× with PBS. Wells were photographed, and stain was solubilized with 2 ml 5% acetic acid and absorbance measured at 570 nm.
Compound,reduction in surviving biofilm cells [2],also measured
"CCCCCC/C=C\CCCCCCCC(=O)O [Palmitoleic acid, palmitoleic acid]",,"vancomycin killing of biofilms ([1]; 50 μg/ml vancomycin, 30 μg/ml palmitoleic acid, with US-PCCA (30 s, 1 MHz, 600 kPa, 10% duty cycle), FIG. 12): drastically improves vancomycin killing"
"NC[C@H]1O[C@H](O[C@H]2[C@H](O)[C@@H](O[C@H]3O[C@H](CO)[C@@H](O)[C@H](N)[C@H]3O)[C@H](N)C[C@@H]2N)[C@H](N)C[C@@H]1O [Tobramycin, tobramycin]",significant reduction,enhancement of tobramycin efficacy in the presence of PCCAs ([1]; 300 kPa): significantly enhanced; enhancement of tobramycin efficacy in the presence of PCCAs ([1]; 600 kPa): significantly enhanced; enhancement of tobramycin efficacy in the presence of PCCAs ([1]; 1200 kPa): significantly enhanced
C[C@H]1COc2c(N3CCN(C)CC3)c(F)cc3c(=O)c(C(=O)O)cn1c23 [levofloxacin],no efficacy,
CC(=O)NC[C@H]1CN(c2ccc(N3CCOCC3)c(F)c2)C(=O)O1 [linezolid],significant reduction,
C/C(=C\C(=O)OCCCCCCCCC(=O)O)C[C@@H]1OC[C@H](C[C@@H]2O[C@H]2[C@@H](C)[C@H](C)O)[C@@H](O)[C@H]1O [mupirocin],significant reduction,increase in killing of biofilm-associated cells by US-PCCA [1]: 41%
"CN[C@H](CC(C)C)C(=O)N[C@H]1C(=O)N[C@@H](CC(N)=O)C(=O)N[C@H]2C(=O)N[C@H]3C(=O)N[C@H](C(=O)N[C@H](C(=O)O)c4cc(O)cc(O)c4-c4cc3ccc4O)[C@H](O)c3ccc(c(Cl)c3)Oc3cc2cc(c3O[C@@H]2O[C@H](CO)[C@@H](O)[C@H](O)[C@H]2O[C@H]2C[C@](C)(N)[C@H](O)[C@H](C)O2)Oc2ccc(cc2Cl)[C@H]1O [vancomycin, vancomycin hydrochloride]",significant reduction,increase in killing of biofilm-associated cells by US-PCCA [1]: 93%
gentamicin,no efficacy,
